The text below walks through data of patent US20210169911A1, “PURINE AND PYRIMIDINE NUCLEOTIDES AS ECTO-5'-NUCLEOTIDASE INHIBITORS” (The United States of America,as represented by the …, priority 2018, published 2021).

Test [1] has as its target T1, CD73 in human tonsillary tissue (Homo sapiens, UniProt P21589).
T1 construct: Palatine tonsils were obtained from adult patients with chronic tonsillitis; from tissue; host or cells: human palatine tonsil cryosections
T1 sequence (P21589 27-549): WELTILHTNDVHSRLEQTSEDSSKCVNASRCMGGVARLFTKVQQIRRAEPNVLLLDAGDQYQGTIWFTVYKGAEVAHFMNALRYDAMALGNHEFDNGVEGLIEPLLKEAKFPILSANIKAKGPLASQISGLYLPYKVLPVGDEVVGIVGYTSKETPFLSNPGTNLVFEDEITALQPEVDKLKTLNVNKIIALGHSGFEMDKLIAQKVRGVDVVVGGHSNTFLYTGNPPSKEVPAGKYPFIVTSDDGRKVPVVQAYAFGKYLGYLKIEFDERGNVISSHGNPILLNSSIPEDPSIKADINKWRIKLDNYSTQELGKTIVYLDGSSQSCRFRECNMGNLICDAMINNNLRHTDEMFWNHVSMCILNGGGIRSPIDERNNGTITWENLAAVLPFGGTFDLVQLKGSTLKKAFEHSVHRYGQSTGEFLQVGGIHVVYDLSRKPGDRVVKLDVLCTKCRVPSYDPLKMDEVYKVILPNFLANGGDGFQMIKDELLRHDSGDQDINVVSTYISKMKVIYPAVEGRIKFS
As to the kind of experiment: Human tonsillar CD73-mediated AMPase activity in tonsil cryosections. It is filed as biochemical. Particulars: 1, 10, and 100 nM; mean pixel intensity, FIG. 10. As to the method:
Palatine tonsils were obtained from adult patients with chronic tonsillitis undergoing routine tonsillectory. The tonsils were washed with phisiological salt solution, embedded in the cyro-mold with Tissue-Tek O.C.T. compound (Sakura Finetek Europe B.V., the Nethelands), cut using a cryostat and stored at −80° C. Tonsil cryoselctions were preincubated for 30 min in Trizma maleate sucrose buffer supplemented with the alkaline phosphatase inhibitor levamisole and different concentrations of compound 9h. The enzymatic reaction was then performed for 45 min at 37° C. in a final volume of […] of TMSB-buffered substrate solution containing Pb (NO3)2, CaCl2, and tested CD73 inhibitor at the same concentration. The lead orthophosphate precipitated in the course of nucleotidase activity was visualized as a brown deposit by incubating sections in (NH3)2S for 30s, followed by three washed in Trizma-maleate buffer for 5 min each. Slides were mounted with Aquatex medium (Merck, Germany). Multiple images of adjacent tissue areas were captured using a slide scanner and further stitched to a larger overview. The images of control and treated tissues were captured at identical exposure times and other settings and further acquired in parallel. Nucleotidase activities were quantified as mean pixel intensities after grayscale conversion.

Test [2] addresses T2, human P2Y6 receptor (Homo sapiens, UniProt Q15077).
T2 construct: expressed in transfected cells; host or cells: 1321N1 human astrocytoma cells
As to the kind of experiment: Human P2Y6 receptor assay, calcium mobilization in 1321N1 astrocytoma cells. The conditions noted are these: 1321N1 cells expressing human P2Y6, read-out: hP2Y6 EC50 ± SEM. It is filed as cell-based. On the procedure: Calcium mobilization induced by the nucleotide derivatives was measured in a human astrocytoma cell line (1321N1) expressing the human P2Y6 receptor, as previously described (33).

Test [3] has as its target T3, recombinant soluble rat CD73 (Rattus norvegicus, UniProt P21588).
T3 sequence (P21588 29-551 limits assumed): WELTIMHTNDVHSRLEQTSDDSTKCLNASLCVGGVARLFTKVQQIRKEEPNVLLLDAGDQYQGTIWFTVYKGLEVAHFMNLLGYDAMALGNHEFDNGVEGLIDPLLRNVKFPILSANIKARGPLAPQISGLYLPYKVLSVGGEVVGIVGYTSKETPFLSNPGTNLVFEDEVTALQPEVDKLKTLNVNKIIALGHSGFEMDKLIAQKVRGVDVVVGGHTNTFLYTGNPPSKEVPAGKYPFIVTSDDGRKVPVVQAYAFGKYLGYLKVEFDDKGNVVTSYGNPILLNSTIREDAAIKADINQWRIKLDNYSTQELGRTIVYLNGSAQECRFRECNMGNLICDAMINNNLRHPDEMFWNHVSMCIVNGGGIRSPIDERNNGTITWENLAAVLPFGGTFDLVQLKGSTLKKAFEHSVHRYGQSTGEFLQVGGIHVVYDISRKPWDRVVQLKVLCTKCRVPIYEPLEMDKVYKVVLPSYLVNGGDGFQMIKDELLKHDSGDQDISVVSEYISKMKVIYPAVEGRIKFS
As to the kind of experiment: Radiometric rat ecto-5′-nucleotidase (CD73) assay with [3H]AMP.
Experimental: After the enzymatic reaction, the substrate was separated from its product [2,8-^3H]adenosine by precipitation with lanthanum chloride followed by filtration through glass fiber filters (34). […] Ki values were calculated from the obtained IC50 values using the Cheng-Prusoff equation (6,7).
The assay was performed as previously described (41) using recombinant rat CD73 expressed in Sf9 insect cells (33). […] The mixture was incubated for 25 min at 37° C. The reaction was stopped by adding 500 μL of ice-cooled precipitation buffer containing 100 mM aqueous lanthanum chloride and 100 mM aqueous sodium acetate solution (pH 4.0). After 30 min, the precipitation was filtered through GF/B glass fiber filters (M-48, Brandel, Gaithersburg, Md., USA). After washing three times, 4 mL of the scintillation cocktail ULTIMA Gold XR was added and then quantified by scintillation counting (TRICARB 2900 TR, Packard/PerkinElmer). Three separate inhibition assays were performed in triplicate, concentration-response curves were fitted, and Ki values were calculated.
The assay was performed essentially as previously described.^D Stock solutions (10 mM) of the compounds were prepared in demineralized water and further dilutions were performed in assay reaction buffer (25 mM Tris, 140 mM sodium chloride, 25 mM sodium dihydrogen phosphate, pH 7.4). 10 μL of the inhibitor solution were added to 70 μL of assay reaction buffer. […] The enzymatic reaction was performed for 25 min at 37° C. in a shaking water bath. […] After the precipitation was completed (after at least 30 min on ice), the mixture was separated by filtration through GF/B glass fiber filters using a cell harvester (M-48, Brandel, Gaitherburg, Md., USA). After washing each reaction vial three times with 400 μl of cold (4° C.) demineralized water, 5 ml of the scintillation cocktail (ULTIMA Gold XR, PerkinElmer, MA, USA) was added and radioactivity was measured by scintillation counting (TRICARB 2900 TR, Packard/PerkinElmer; counting efficacy: 49-52%). Two controls were included and measured as duplicates. One reaction was performed without the inhibitor resulting in 100% enzyme activity (positive control) and one was incubated without the inhibitor and the enzyme and served as background control. The resulting data were subtracted from the background and were normalized with to the positive control. The results were plotted, and concentration-inhibition curves were fitted with GraphPad Prism 5 (GraphPad Software, La Jolla, USA).
After 30 min, the precipitation was filtered through GF/B glass fiber filters (M-48, Brandel, Gaithersburg, Md., USA). After washing three times, 4 mL of the scintillation cocktail ULTIMA Gold XR was added and then quantified by scintillation counting (TRICARB 2900 TR, Packard/PerkinElmer). Three separate inhibition assays were performed in triplicate, concentration-response curves were fitted, and K, values were calculated.

Test [4] addresses T4, membrane-bound CD73 (membrane preparation of MDA-MB-231 cells) (Homo sapiens, UniProt P21589).
T4 sequence (P21589 27-549): T1 sequence (P21589 27-549)
As to the kind of experiment: Radiometric CD73 inhibition assay, membrane preparations of MDA-MB-231 cells.
Experimental: After the enzymatic reaction, the substrate was separated from its product [2,8-^3H]adenosine by precipitation with lanthanum chloride followed by filtration through glass fiber filters (34). For compounds that inhibited CD73 activity by more than 50% at an initial screening concentration of 1 μM, full concentration-response curves were determined in at least three separate experiments performed in duplicates using 10 different concentrations of inhibitor. Ki values were calculated from the obtained IC50 values using the Cheng-Prusoff equation (6,7). […]
The assay was performed essentially as previously described.^D Stock solutions (10 mM) of the compounds were prepared in demineralized water and further dilutions were performed in assay reaction buffer (25 mM Tris, 140 mM sodium chloride, 25 mM sodium dihydrogen phosphate, pH 7.4). […] After washing each reaction vial three times with 400 μl of cold (4° C.) demineralized water, 5 ml of the scintillation cocktail (ULTIMA Gold XR, PerkinElmer, MA, USA) was added and radioactivity was measured by scintillation counting (TRICARB 2900 TR, Packard/PerkinElmer; counting efficacy: 49-52%). Two controls were included and measured as duplicates. […]

The subject of test [5] is recombinant soluble human CD73. In words: Radiometric CD73 inhibition assay, recombinant soluble human CD73. It is filed as biochemical. The conditions noted are these: human vs rat CD73 Ki, Table 5. As to the method:
The cDNA for the soluble human CD73 (Genbank accession no. NM_002526) was obtained from Prof. Dr. Norbert Sträter (University of Leipzig, Germany) (3). […] Sf9 insect cells were grown in Insect-[…] media (#: BE12-[…], Lonza, Switzerland) with 10 mg/l gentamicin and split at a ratio of 1:3 every fourth day. For transfection, cells were seeded into cell culture flasks (25 cm^2) at 60-70% confluence. 100 μl of cell medium and 1 μl of the vector DNA (1000 ng/μ1) were mixed with 2.5 μl of baculovirus genomic ProEasyTM vector DNA (AB vector, CA, USA) and combined with premixed 100 μl of cell medium and 8 μl of CellfectinTM II Reagent (Thermo Fisher Scientific, MA, USA). […] The cells were incubated for 30 min at rt, and for further 4 days at 27° C. Cells from the transfection procedure were detached from the bottom of the flasks and centrifuged for 5 min at 2000 g. 1.5 ml of the supernatant (viral stock) was added to 75 cm^2 cell culture flasks containing Sf9 cells (60-70% confluence), and the cells were incubated for four days at 27° C. Then 1.5 ml of the supernatant were taken and added to uninfected Sf9 cells in a 75 cm^2 flask. This was repeated five more times, using more cells and larger flasks after the third round of infections (150 cm^2 to which 3.0 ml of supernatant were added). The stock P8 was finally used for infection of the cells. For protein expression, 3 ml of the virus solution were used to infect 150 ml of cell media containing 2×10^6 cells/ml in a 500 ml Erlenmeyer flask, and they were incubated for 4 days at 27° C. with shaking (150 rpm). Then, cell suspensions were transferred to 50 ml falcon tubes and centrifuged at 15 min at 5000 g at 4° C. The supernatants were subjected to ultrafiltration using Amicon® Ultra-15, 10 kDa cut-off (Merck Millipore, MA, USA) at 5000 g for 15-30 min at 4° C. The concentrated protein was purified with HisPurTM Ni^2+-NTA spin columns (#: 88226, Thermo Fisher Scientific, MA, USA). The elution of the columns was performed as recommended in the instruction manual with adjusting the incubation time for protein binding to 1 h at 4° C. with an end-over-end mixer and an additional incubation step of 5 min with the elution buffer before eluting. Eluates were pooled and dialyzed (Membra-Cer, 14 kDa cut-off, 250 mm×44 mm×0.02 mm; Carl Roth, Germany) at 4° C. in 25 mM Tris, pH 7.4, with a volume adjusted to 40 times the volume of the elution fraction. […] The enzyme was aliquoted and stored at -80° C. until use.

Test [6] concerns the target T5, human P2Y14 receptor (Homo sapiens, UniProt Q15391).
T5 construct: expressed in transfected cells; host or cells: CHO cells
T5 sequence (Q15391 1-338): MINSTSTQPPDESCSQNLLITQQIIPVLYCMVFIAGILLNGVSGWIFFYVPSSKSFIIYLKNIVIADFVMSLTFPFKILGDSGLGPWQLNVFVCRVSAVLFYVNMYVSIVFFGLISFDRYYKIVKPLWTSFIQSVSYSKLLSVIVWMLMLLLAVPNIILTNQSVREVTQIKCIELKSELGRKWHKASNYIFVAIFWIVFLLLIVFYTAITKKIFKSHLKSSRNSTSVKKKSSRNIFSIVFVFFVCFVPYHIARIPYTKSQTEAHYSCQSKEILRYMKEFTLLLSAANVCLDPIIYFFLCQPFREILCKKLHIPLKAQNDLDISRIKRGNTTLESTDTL
As to the kind of experiment: Human P2Y14 receptor assay, inhibition of binding of a fluorescent antagonist, flow cytometry in CHO cells. Particulars: CHO cells expressing human P2Y14, read-out: hP2Y14 IC50 ± SEM. On the procedure:
Inhibition of binding of a high affinity fluorescent antagonist was measured using flow cytometry in a CHO cell line expressing the human P2Y14 receptor, as previously described (34).

pEC50, pIC50, pKi: −log10 of the molar value.

T2 sequence (Q15077 whole entry): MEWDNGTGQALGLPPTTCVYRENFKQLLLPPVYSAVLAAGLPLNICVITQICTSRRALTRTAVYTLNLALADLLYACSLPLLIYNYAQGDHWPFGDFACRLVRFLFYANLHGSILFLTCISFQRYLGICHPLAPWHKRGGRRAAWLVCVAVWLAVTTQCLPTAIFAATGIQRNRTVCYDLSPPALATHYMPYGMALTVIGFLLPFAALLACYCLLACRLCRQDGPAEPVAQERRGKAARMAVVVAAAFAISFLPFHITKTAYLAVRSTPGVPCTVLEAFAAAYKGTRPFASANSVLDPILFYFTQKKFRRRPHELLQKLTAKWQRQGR

As for `Cn1c(=O)n([C@@H]2O[C@H](COP(=O)(O)CP(=O)(O)O)[C@@H](O)[C@H]2O)cc/c1=N/OCc1ccccc1` [Compound 9h, N^4-[O-(4-Benzyloxy)]-3-methyl-cytidine-5′-O-[(phosphonomethyl)phosphonic acid]], the “inhibition of the catalytic activity of CD73 in human tonsillary tissue” value in test [1] is reported as “inhibited the catalytic activity of CD73 in a concentration-dependent manner”. For the same compound, the negative-log EC50 (pEC50) in test [2] was less than 2.52. For the same compound, the pKi in test [3] was 8.44; in test [4] it was 8.10. Besides, the “potency at human CD73 as compared to the rat enzyme” value in test [5] is on record as “somewhat less potent”. Also, the negative-log IC50 (pIC50) in test [6] was less than 2.52.
